According to patent US7678913B2, “Ureas as factor Xa inhibitors” (Portola Pharmaceuticals, Inc., priority 2004, dated 2010):

Biological target: T1, human plasma protein factor Xa (Homo sapiens, UniProt P00742)
T1 construct: measure proteolytic activity of the enzyme (factor Xa); purchased Haematologic Technologies (Essex Junction, Vt.); host or cells: human plasma
Assay: Factor Xa IC50 determination (cleavage of chromogenic substrate S-2765)
Format: biochemical
Conditions: fXa 1 nM, S-2765 100 μM, Tris buffered saline pH 7.4, room temperature
How it was run: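 Human plasma factor Xa (1 nM) preincubated 5 min at room temperature with inhibitor (0.01 nM–10 μM final) in Tris-buffered saline pH 7.4 with CaCl2, BSA and 5% DMSO. S-2765 added at 100 μM; pNA release at 405 nm over 2 min; initial velocities fitted to four-parameter equation for IC50, duplicates.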

T1 sequence (P00742 235-488 limits assumed): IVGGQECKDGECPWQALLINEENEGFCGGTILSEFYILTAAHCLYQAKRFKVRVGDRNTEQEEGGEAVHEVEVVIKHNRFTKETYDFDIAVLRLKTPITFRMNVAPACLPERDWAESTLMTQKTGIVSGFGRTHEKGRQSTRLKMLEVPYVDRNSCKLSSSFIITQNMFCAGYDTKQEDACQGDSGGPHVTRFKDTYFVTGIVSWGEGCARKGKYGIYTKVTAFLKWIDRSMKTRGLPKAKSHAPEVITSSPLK
T1 sequence (P00742 41-179 partner limits assumed): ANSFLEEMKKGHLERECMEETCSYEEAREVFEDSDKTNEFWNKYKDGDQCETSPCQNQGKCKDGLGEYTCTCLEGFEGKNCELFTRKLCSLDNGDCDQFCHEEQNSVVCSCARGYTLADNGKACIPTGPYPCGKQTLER

| Structure (SMILES) | IC50 |
| --- | --- |
| CN(C)C(=N)c1ccc(NC(=O)C(NC(=O)Nc2ccc(Cl)cc2)c2ccccc2Br)cc1 (stereo not shown) [Example 80, N-[4-(dimethylaminoimino)phenyl]-2-(2-bromophenyl)-2-(4-chlorophenylaminocarbonylamino)-acetamide] | ≤ 100 nM |
| CN1CCN=C1c1ccc(NC(=O)C(NC(=O)Nc2ccc(F)cc2)c2cccs2)cc1 (stereo not shown) [Example 17, N-[4-(1-methyl-4,5-dihydro-1H-imidazol-2-yl)phenyl]-2-(2-thienyl)-2-(4-fluorophenylaminocarbonylamino)-acetamide] | 100 to 500 nM |
| CN(C)Cc1nccn1-c1ccc(NC(=O)C(NC(=O)Nc2ccc(Cl)cc2)c2ccccc2F)c(F)c1 (stereo not shown) [Example 58, N-[4-(2-dimethylaminomethyl-imidazol-1-yl)-2-fluorophenyl]-2-(2-fluorophenyl)-2-(4-chlorophenylaminocarbonylamino)-acetamide] | ≤ 100 nM |
| CN1CCC(N2CCCN(C(=O)[C@H](NC(=O)Nc3ccc(Cl)cc3)c3ccccc3)CC2)CC1 [Example 156, (2R) 4-(1-methylpiperidin-4-yl)homopiperazin-1-yl-2-phenyl-2-(4-chlorophenylaminocarbonylamino)-acetamide] | ≥ 500 nM |
| O=C(Nc1ccc(Cl)cc1)NC(C(=O)NCC1CCN(c2ccncc2)CC1)c1ccccc1Cl (stereo not shown) [Example 105, N-[1-(pyridin-4-yl)piperidin-4-yl]methyl-2-(2-chlorophenyl)-2-(4-chlorophenylaminocarbonylamino)-acetamide] | ≤ 100 nM |
| Cc1ccccc1C(NC(=O)Nc1ccc(Cl)cc1)C(=O)Nc1ccc(C2=NCCN2C)cc1 (stereo not shown) [Example 84, N-[4-(1-methyl-4,5-dihydro-1H-imidazol-2-yl)phenyl]-2-(2-methylphenyl)-2-(4-chlorophenylaminocarbonylamino)-acetamide] | ≤ 100 nM |
| COc1ccccc1C(NC(=O)Nc1ccc(Cl)cc1)C(=O)N1CCC(N2CCCCC2=O)CC1 (stereo not shown) [Example 150, 4-(2-piperidinon-1-yl)piperidin-1-yl-2-(2-methoxyphenyl)-2-(4-chlorophenylaminocarbonylamino)-acetamide] | ≤ 100 nM |
| O=C(Nc1ccc(Cl)cc1)NC(C(=O)N1CCC(N2CCOCC2=O)CC1)c1ccccc1Br (stereo not shown) [Example 146, 4-(3-morpholinon-4-yl)piperidin-1-yl-2-(2-bromophenyl)-2-(4-chlorophenylaminocarbonylamino)-acetamide] | 100 to 500 nM |
| CNC(=O)CC(NC(=O)Nc1ccc(Cl)cc1)C(=O)Nc1ccc(C2=NCCN2C)cc1 (stereo not shown) [Example 70, N-[4-(1-methyl-4,5-dihydro-1H-imidazol-2-yl)phenyl]-2-(methylamino-carbonylmethyl)-2-(4-chlorophenylaminocarbonylamino)-acetamide] | 100 to 500 nM |
| C#CCN(C)C(=N)c1ccc(NC(=O)C(NC(=O)Nc2ccc(Cl)cc2)c2ccccc2)cc1 (stereo not shown) [Example 27, N-[4-(N-methyl-N-propargylaminoimino)phenyl]-2-phenyl-2-(4-chlorophenylaminocarbonylamino)-acetamide] | ≤ 100 nM |
| CN1CCN=C1c1ccc(NC(=O)C(CC(=O)Nc2ccccc2)NC(=O)Nc2ccc(Cl)cc2)cc1 (stereo not shown) [Example 73, N-[4-(1-methyl-4,5-dihydro-1H-imidazol-2-yl)phenyl]-2-(phenylamino-carbonylmethyl)-2-(4-chlorophenylaminocarbonylamino)-acetamide] | 100 to 500 nM |
| CN1CCN=C1c1ccc(NC(=O)C(NC(=O)Nc2ccc(Cl)cc2)c2ccc3c(c2)OCO3)cc1 (stereo not shown) [Example 76, N-[4-(1-methyl-4,5-dihydro-1H-imidazol-2-yl)phenyl]-2-(benzo-1,3-dioxl-5-yl)-2-(4-chlorophenylaminocarbonylamino)-acetamide] | ≤ 100 nM |
| O=C(Nc1ccc(Cl)cc1)NC(C(=O)Nc1ccc(-c2cccc[n+]2[O-])cc1)c1ccccc1F (stereo not shown) [Example 51, N-[4-(N-oxo-pyridin-2-yl)phenyl]-2-(2-fluorophenyl)-2-(4-chlorophenylaminocarbonylamino)-acetamide] | ≤ 100 nM |
